Laboratory results as given in patent US10874686B2, “Anthranilyl-adenosinemonosulfamate analogs and uses thereof” (Memorial Sloan-Kettering Cancer Center, priority 2015, dated 2020).

Tests used:
P. aeruginosa PqsA = P. aeruginosa PqsA (Pseudomonas aeruginosa, UniProt Q9I4X3); test: PqsA inhibition, spectrophotometric assay with recombinant PqsA (anthranilyl-CoA formation at 365 nm); type: biochemical; settings: uncompetitive with respect to anthranilate and CoA
Procedure: PqsA inhibitors were evaluated using a quantitative spectrophotometric assay with recombinant PqsA, detecting formation of anthranilyl-CoA at 365 nm. See, e.g., Coleman et al. (2008) J. Bacteriol. 190, 1247. […] See, e.g., Morrison et al. Biochim. Biophys. Acta, Enzymol. 185, 269-286; Williams et al. (1979) Methods Enzymol. 63, 437. […] See, e.g., Qiao et al. (2007) J. Am. Chem. Soc. 129, 6350.
Reactions were performed at 37° C. in a 0.5 mL volume in a Varian Cary 100 UV-visible spectrophotometer with Cary WinUV software. Reaction mixtures contained 100 mM HEPES, pH 8.0, 0.2 mM dithiothreitol, 2 mM MgCl2, ˜3.3 μg PqsA protein (˜60 nM final), and depending on which substrate varied, 1 mM ATP (disodium salt), 0.5 mM coenzyme A (tri-lithium salt), 0.5 mM sodium anthranilate, and inhibitor (usually as a DMSO stock solution). Reactions were blanked and preincubated with all components except anthranilate at 37° C. for 1 min, then initiated by addition of anthranilate. Formation of anthraniloyl-CoA was monitored ance at 365 nm (ε=5.5 mM−1 cm−1) for 1 min. Data were analyzed using GraphPad Prism 6 software.

HepG2 cells [1] = test: Cytotoxicity cell viability assay (CellTiter Glo), HepG2; type: cell-based; settings: for toxicity in words, CellTiter Glo, HepG2: HepG2, luminescence readout, up to 1000 μM; for IC50: Homo sapiens, HepG2, 48 hrs, luminescence
Excerpt: (§1) Promega Cell Titer-Glo utilizes the ATP dependent conversion of Luciferin to Oxyluciferin by a recombinant Luciferase in order to quantify the number of metabolically active cells in a sample. Quantification is possible because the number of RLU's detected is linearly proportional to the amount of ATP produced by metabolically active cells in culture at the time of lysis. Therefore, the relative cytotoxicity of each compound can be tested by quantifying the amount of ATP present in each microtiter well as compared to control groups. HepG2 and MRC5 were plated at a density of 1500 cells/25 al in well in the assay plate and allowed to settle overnight. 0.1 μL of compounds was then transferred from the source plate, into the cell assay plates. The cells were left to incubate with the compounds for 48 hrs, after which, 25 μL of Promega Cell Titer-Glo was added to each well, and allowed to incubate at room temperature with shaking for 20 minutes. RLU's for each well were then recorded on a BioTek Synergy NEO. DMSO was used as negative control

HepG2 cells [2] = test: Cell health and viability image-based study (fluorescence microscopy), HepG2; settings: for IC50: Homo sapiens, HepG2, imaging; for toxicity in words, imaging, HepG2: up to 1000 μM
Procedure: The multiparametric assay developed surveys a number of elements of cell health simultaneously. Using a combination of 2 dyes, we are able to simultaneously measure nuclear morphology, membrane integrity and cell proliferation. All measurements are made on live cells after an incubation time of 24H. Hoechst 33342 is used to measure total number of cells, nuclear morphology and cell proliferation. The nuclear impermeable dye Syto17 is used to assess the nuclear membrane integrity by measuring the nuclear translocation of the dye when the membrane gets porous after incubation with a toxic compound. Cells were plated at a density of 1500 cells/25 al in well in a 384 wells plate the day before incubation with the drugs. The following day, 0.1 al of the source plate are added to the assay plate. Then, 25 al of a fluorophores mixture containing Hoechst 33342, Syto17 diluted in EMEM was added to each well. Plates are read after 48 h incubation in the ImageXpress instrument (Molecular Devices) using the appropriate filters. Images are analyzed using an application of MetaXpress software (Molecular Devices) and data are presented using Prism software. Low Signal Control (C23): 5 μM Staurosporine; High Signal Control (C24): DMSO.

[3] = tested on: pyocyanin production by P. aeruginosa strain PA14; test: Pyocyanin production by P. aeruginosa strain PA14; type: cell-based, Pseudomonas aeruginosa; settings: 1 mM, 24 h
Procedure: Production of pyocyanin by P. aeruginosa strain PA14 was performed in triplicate in roundbottom glass tubes containing 5-mL cultures in LB medium. Tubes tilted at ˜60° angle were incubated at 37° C. in an orbital shaker at 200 rpm. Cultures were inoculated with 15-h preculture in LB in order to obtain a starting OD600 nm=0.05, with or without inhibitors added. At 24 h, 1 mL of each culture was thoroughly vortexed and centrifuged (12,000 g, 5 min). Next, 0.8 mL of the supernatant was removed and the OD690 nm was measured. The ratio of the absorbance compound-treated or MvfR^− cultures and untreated controls was calculated to provide the data in FIG. 7B.
The ability of these PqsA inhibitors to block production of the virulence factor pyocyanin was investigated. […] See, e.g., Starkey et al. (2014) PLoS Pathog. 10, e1004321; Storz et al. (2012) J. Am. Chem. Soc. 134, 16143; Thomann et al. (2016) ACS Chem. Biol. 11, 1279. Haloanthranilate substrate analogues have been reported to inhibit both quinolone and pyocyanin production but may impact multiple targets in this complex signaling network. This is indicative of the complex relationship between HHQ and PQS quinolone biosynthesis, induction of the MvfR regulon, and production of pyocyanin.

MRC5 cells = test: Cytotoxicity cell viability assay (CellTiter Glo), MRC5; type: cell-based; settings: for IC50: Homo sapiens, MRC5, 48 hrs, luminescence; for toxicity in words, CellTiter Glo, MRC5: MRC5, luminescence readout, up to 1000 μM
Excerpt: as §1

[4] = Hoechst 33342, read-out: Cell Count IC50, HepG2
[5] = Syto17, read-out: Nuclear membrane integrity IC50, HepG2

Sequence of P. aeruginosa PqsA (Q9I4X3 whole entry): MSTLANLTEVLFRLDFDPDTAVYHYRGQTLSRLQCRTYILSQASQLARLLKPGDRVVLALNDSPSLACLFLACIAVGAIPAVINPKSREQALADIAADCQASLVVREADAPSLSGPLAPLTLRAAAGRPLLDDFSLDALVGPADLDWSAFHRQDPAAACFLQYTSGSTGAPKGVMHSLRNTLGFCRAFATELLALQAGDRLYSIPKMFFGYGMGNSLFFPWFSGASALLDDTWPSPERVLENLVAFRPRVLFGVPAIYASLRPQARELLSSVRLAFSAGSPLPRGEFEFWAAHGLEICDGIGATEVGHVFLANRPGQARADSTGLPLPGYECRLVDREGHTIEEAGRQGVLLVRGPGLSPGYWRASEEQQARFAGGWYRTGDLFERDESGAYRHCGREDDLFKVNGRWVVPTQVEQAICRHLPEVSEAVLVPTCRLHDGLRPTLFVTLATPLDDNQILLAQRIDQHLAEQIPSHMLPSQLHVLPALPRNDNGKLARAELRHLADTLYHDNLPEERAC

| SMILES | mode of PqsA inhibition (P. aeruginosa PqsA) | toxicity in words, CellTiter Glo, HepG2 (HepG2 cells [1]) | IC50 (HepG2 cells [1]) | IC50 (HepG2 cells [2]; [4]) | IC50 (HepG2 cells [2]; [5]) | toxicity in words, imaging, HepG2 (HepG2 cells [2]) | inhibition of pyocyanin production [3] | IC50 (MRC5 cells) | toxicity in words, CellTiter Glo, MRC5 (MRC5 cells) |
| --- | --- | --- | --- | --- | --- | --- | --- | --- | --- |
| Nc1ccccc1C(=O)NS(=O)(=O)NC[C@H]1O[C@@H](n2cnc3c(N)ncnc32)[C@H](O)[C@@H]1O [anthranilyl-AMSN, Anthranilyl-AMSN] | competitive inhibitors with respect to ATP | significant toxicity in the tested range | 19.2 µM | 6 µM | 56.3 µM | significant toxicity in the tested range | neither inhibited pyocyanin production | 33.7 µM | significant toxicity in the tested range |
| Nc1ccccc1C(=O)NS(=O)(=O)OC[C@H]1O[C@@H](n2cnc3c(N)ncnc32)[C@H](O)[C@@H]1O [anthranilyl-AMS, Anthranilyl-AMS] | competitive inhibitors with respect to ATP | significant toxicity in the tested range | 3.1 µM | 5.9 µM | 12.1 µM | significant toxicity in the tested range | neither inhibited pyocyanin production | 10.6 µM | significant toxicity in the tested range |
